Series [1] has as its system Hs766T pancreatic cancer cells. In words: Cell proliferation, Hs766T. Format: cell-based, human. The settings on record: compared to negative controls. As for the experimental part: (§1) For transfections, 1×10^5 cells were plated in six-well plates and transfected with 100 nM of control non-specific miRNA (Thermo Fischer), a modified microRNA, or exogenous native microRNA after 24 hours using Oligofectamine (Thermo Fischer) following the manufacturer's protocols. For reagent free transfection, cells were plated in 6 well plates at (1×10^5) cells per well. Twenty-four hours later 100 pmol miRNA (Control, miR-15a, Mimic-1) were diluted in Optimem (Thermo Fischer) and added to the plate. Media was changed after 24 hours. Media was supplemented with 10% fetal bovine serum (Thermo Fischer). Briefly, cells were cultured in growth media (DMEM/F12 supplemented with B27, 10 ng/mL bFGF, and 20 ng/mL EGF (Life Technologies) in ultra-low attachment flasks) for up to 6 days. The spheroid cells were maintained by collection through gentle centrifugation, dissociation to single cells and replating.
(§2) Cell proliferation assay: Twenty-four hours after transfection, cells were seeded in 96-well plates at a density of 2000 cells per well. The cell proliferation assay was performed on days 1 to 5 by incubating 10 μl WST-1 (Roche Applied Science, Mannheim, Germany) in the culture medium for 1 h and reading the absorbance at 450 and 630 nm. The cell proliferation rate was calculated by subtracting the […]. Experiments for the cell proliferation assay were performed at least three times. The O.D. was calculated by subtracting the absorbance at 630 nm from that at 450 nm. Proliferation experiments were performed three times.

The test system of series [2] is acute lymphocytic leukemia cell line (REH). The series is described as follows: Cell proliferation, REH. The format is cell-based, human. The settings on record: 50 nM, 25 nM, 12.5 nM, 6.25 nM, and 3.125 nM.
The next series deals with AGS stomach cancer cells. The series is described as follows: Cell proliferation, AGS. Format: cell-based, human. The settings on record: compared to negative controls. As for the experimental part: as §1, §2
Series [3] relates to acute lymphocytic leukemia cell line (REH). In words: Cell proliferation, REH. Format: cell-based, human. The settings on record: compared to negative controls. As for the experimental part: as §1, §2
Series [4] concerns Panc-1 pancreatic cancer cells. In words: Cell proliferation, Panc-1. The format is cell-based, human. The settings on record: PANC-1; 50 nM, 25 nM, 12.5 nM, 6.25 nM, and 3.125 nM. As for the experimental part: as §1, with “For transfections, 1×10^5 cells were plated in six-well plates and transfected with 100 nM of control non-specific miRNA (Thermo Fischer), a modified microRNA, or exogenous native microRNA after 24 hours using Oligofectamine (Thermo Fischer) following the manufacturer's protocols.” left out
as §2

Series [5] concerns AsPC-1 pancreatic cancer cells. The series is described as follows: Cell proliferation, AsPC-1. Format: cell-based, human. The settings on record: APSC-1; 50 nM, 25 nM, 12.5 nM, 6.25 nM, and 3.125 nM. As for the experimental part:
as §1, with “For transfections, 1×10^5 cells were plated in six-well plates and transfected with 100 nM of control non-specific miRNA (Thermo Fischer), a modified microRNA, or exogenous native microRNA after 24 hours using Oligofectamine (Thermo Fischer) following the manufacturer's protocols.” left out
as §2

The test system of series [6] is SKBR3 breast cancer cells. In words: Cell proliferation, SKBR3. The settings on record: SKBR3, compared to negative controls. Format: cell-based, human. As for the experimental part:
as §1, §2

The next series has as its system REH leukemia cells. The series is described as follows: Cell cycle analysis, REH leukemia cells. The settings on record: 50 nM, compared to the control. Format: cell-based, human. As for the experimental part:
(§3) Cell cycle analysis: Twenty-four hours after transfection, cells were harvested and resuspended at 0.5 to 1×10^6 cells/mL in modified Krishan's buffer supplemented with 0.02 mg/mL RNase H and 0.05 mg/mL propidium iodide. Stained cells were detected by flow cytometry and results were analyzed with Modfit LT™ software. The experiments for cell cycle analysis were performed at least three times.

In another series the test system is A549 lung cancer cells. In words: Cell proliferation, A549. Format: cell-based, human. The settings on record: A549, compared to negative controls. As for the experimental part:
as §1, §2

Series [7] has as its system MDA-MB-231 triple negative breast cancer cells. In words: MTT cell proliferation, MDA-MB-231, with or without oligofectamine. The format is cell-based, human. As for the experimental part: as §1
Furthermore, to test whether or not the modified microRNAs of the present disclosure can be delivered directly to cells and taken up by the cancer cells without the use of transfer agents or vehicles (i.e., oligofectamine), MDA-MB-231 triple negative breast cancer cells were transfected with miR-NC (negative control), exogenous unmodified miR-200b or miR-489, 5-FU-miR-200b or modified miR-489 by using oligofectamine or without delivery vehicle. As shown in FIGS. 17A-17B and 20A, the effects of expression of the exemplary modified miRs tested on breast cancer cell proliferation were monitored by MTT assay for 6 days upon transfection or incubation.

A further series has as its system MDC1 and SUZ12. In words: Western blot of MDC1 and SUZ12 in triple negative breast cancer cells. The format is cell-based, human. The settings on record: triple negative breast cancer cells, western blot. As for the experimental part:
(§4) Western immunoblot analysis: Forty-eight hours after transfection, equal amounts of protein (15 μg) extracted from cells lysed in RIPA buffer with protease inhibitor (Sigma) and were separated on 10%-12% sodium dodecyl sulfate-polyacrylamide gels using standard procedures. The primary antibodies used for the analysis were rabbit anti-YAP1 monoclonal antibody (1:10000) (Cell Signaling Technologies), anti-DLCK1 (1:500) (Abcam), anti-BCL2 (1:500) (NeoMarkers), anti-MDC1 (1:500), anti-SUZ12 (1:500), anti-pChk-1 (1:500), anti beta-actin (1:500), anti-BMI-1 (1:10000) (Cell Signaling Technologies), mouse anti-human TS antibody (1:500), anti-α-tubulin (1:50000) (Santa Cruz Biotech Inc.), anti-GAPDH (1:100000) (Santa Cruz Biotech Inc.), anti-E2F3 (1:500) (Santa Cruz Biotech Inc.), Horseradish peroxidase-conjugated antibodies against mouse or rabbit (1:5000, Santa Cruz Biotech Inc.) were used as the secondary antibodies. Protein bands were visualized with autoradiography film using SuperSignal West Pico Chemiluminescent Substrate (Thermo Fischer). Western blot density was quantified using Image J software.
(A western blot detects proteins with antibodies after separation by electrophoresis.)

Series [8] deals with HCT116 colon cancer cells. In words: WST-1 cell proliferation assay, HCT116. Format: cell-based, human. As for the experimental part:
as §1, with “1×10^5 cells were plated in six-well plates and transfected with 100 nM of control non-specific miRNA (Thermo Fischer), a modified microRNA, or exogenous native microRNA after 24 hours using Oligofectamine” left out
as §2
For orientation: Formazan colour is commonly taken as a measure of viable cells.

The test system of series [9] is HCT116 derived colon cancer stem cells. Format: cell-based. The settings on record: lethal dose of 5-FU at 100 μM. As for the experimental part: as §1
miR-129 mimics eliminated chemotherapy resistant colon cancer stem cells. To determine the impact of certain exemplary modified microRNAs of the present disclosure (i.e., miR-129 mimics) on 5-FU resistant colon cancer stem cells, HCT116 derived colon cancer stem cells were treated with various concentrations of Mimic-1 or 5-FU.

Series [10] deals with YAP1, BMI1, DCLK1 and BCL2. In words: Western blot of miR-15a targets in HCT-116 colon cancer stem cells. Format: cell-based, human. The settings on record: three days following transfection. As for the experimental part:
as §4, with “[…],” for “Forty-eight hours after transfection,”, “software. […]” for “software.”

The subject of the next series is HCT-116 cells. In words: Cell cycle analysis by flow cytometry, colon cancer cells. The format is cell-based, human. The settings on record: colon cancer cells, compared to the control. As for the experimental part:
as §3

The test system of the next series is colon cancer stem cells. The series is described as follows: Anchorage-independent colony formation (soft agar). Format: cell-based, human. The settings on record: soft agar / Matrigel matrix. As for the experimental part: Anchorage-independent proliferation was studied to determine cancer cell colony forming ability. Cancer cells were trypsinized and counted and a total of 1×10^5 cells per well were transfected in 6-well plates with 25 nM modified microRNA or native miRs or a negative control miRNA with oligofectamine, and 6 hours after transfection, cells were recounted. A total of 20,000 cells in 0.35% agar (Bacto Agar; Becton Dickinson) were layered on top of 1 mL of a solidified 0.6% agar layer in a 35-mm dish. Growth media with B27, 10 ng/mL bFGF, and 20 ng/mL EGF were included in both layers. After 2 weeks of incubation, colonies more than […] in diameter were counted.

[5FU] = 5-fluorouracil base replacing uracil

In the case of “GU^FCCAGU^FU^FU^FU^FCCCAGGAAU^FCCCU^F (GUCCAGUUUUCCCAGGAAUCCCU; RNA, [5FU] at 2, 7, 8, 9, 10, 19, 23, backbone not given here) [modified miR-145]”, the “pancreatic cancer cell proliferation” value in series [1] is “inhibited”. Moreover, in series [2], the “leukemia cancer cell proliferation, dose dependence” value is reported as “inhibited in a dose dependent manner”. Moreover, the “gastric cancer cell proliferation” value in the series with AGS stomach cancer cells was “inhibited”. The “leukemia cancer cell proliferation” value in [3] was “inhibited”. The “cell proliferation, dose dependence” value in [4] and in series [5] was “inhibited in a dose dependent manner” each time. Also, the “breast cancer cell proliferation” value in [6] is given as “inhibited”. The G1/S ratio result in the series on REH leukemia cells is given as “significant fold increase in the G1/S ratio”. Also, the “lung cancer cell proliferation” value in the series with A549 lung cancer cells was “inhibited”.

On to “U^FGAGGU^FAGU^FAGGU^FU^FGU^FAU^FAGU^FU^F [modified miR-let-7]”, for which, in [1], the “pancreatic cancer cell proliferation” value is on record as “inhibited”. Further, in series [2], the “leukemia cancer cell proliferation, dose dependence” value is “inhibited in a dose dependent manner”. Also, in the series with AGS stomach cancer cells, the “gastric cancer cell proliferation” value was “inhibited”. For the same compound, in series [3], the “leukemia cancer cell proliferation” value was “inhibited”. In addition, the “cell proliferation, dose dependence” value in [4] and in series [5] was “inhibited in a dose dependent manner” in each case. Also, the “breast cancer cell proliferation” value in [6] was “inhibited”. In addition, in the series with REH leukemia cells, the G1/S ratio result is “significant fold increase in the G1/S ratio”. In the series on A549 lung cancer cells, the “lung cancer cell proliferation” value was “inhibited”.

As to “CGACGGCAUAUACACUACAGUG (chemistry not fully specified; listed as Homo sapiens) [native miR-489, 31]”, in series [7] (MDA-MB-231, MTT assay), the “cell proliferation without delivery vehicle (no oligofectamine)” value is recorded as “did not inhibit cell growth”. Further, in series [7] (MDA-MB-231, MTT assay for 6 days, vs miR-NC), the “cell proliferation in the presence of oligofectamine” value is on record as “reduced the rate of cell proliferation”. In series [7] (MDA-MB-231, MTT, compared with 5 μM 5-FU alone), the “cancer cell proliferation, native miR without 5-FU chemotherapy” value was “reduces cancer cell proliferation in a manner similar to that exhibited when cells are treated with 5-FU alone”. In the series on MDC1 and SUZ12, the “MDC1 and SUZ12 protein expression” value is “reduction of MDC1 and SUZ12 protein expression”.

For “CU^FGACCU^FAU^FGAAU^FU^FGACAGCC (CUGACCUAUGAAUUGACAGCC; RNA, [5FU] at 2, 7, 9, 13, 14, backbone not given here) [modified miR-192]”, the “pancreatic cancer cell proliferation” value in [1] was “inhibited”. The “leukemia cancer cell proliferation, dose dependence” value in series [2] is “inhibited in a dose dependent manner”. The “gastric cancer cell proliferation” value in the series on AGS stomach cancer cells is “inhibited”. Further, in series [3], the “leukemia cancer cell proliferation” value is “inhibited”. Further, the “inhibition of colon cancer cell proliferation” value in series [8] (HCT116, in words, vs controls) is reported as “increased ability to inhibit colorectal cancer cell proliferation”. Moreover, the “cell proliferation, dose dependence” value in series [4] and in series [5] was “inhibited in a dose dependent manner” throughout. Also, the “breast cancer cell proliferation” value in [6] is listed as “inhibited”. Further, in the series with A549 lung cancer cells, the “lung cancer cell proliferation” value is listed as “inhibited”.

For the compound `O=c1[nH]cc(F)c(=O)[nH]1` [5-FU, 5-fluoro-1H-pyrimidine-2,4-dione, reference compound], the “effect on tumor stem cell viability” value in series [9] is reported as “minimal effect”.

As for “UAGCAGCACAUAAUGGUUUGUG (RNA, backbone not given here; listed as Homo sapiens) [unmodified miR-15a, reference compound]”, the “protein levels of YAP1, BMI1, DCLK1 and BCL2” value in [10] was “reduced”. Further, the “decrease of cell proliferation compared to control” value in series [8] (HCT-116, WST-1, six days after transfection) is on record as 53%. For the same compound, the “increase in the G1/S ratio” value with HCT-116 cells was “about 3 fold”. The “colony / sphere formation” value with colon cancer stem cells is “very few colonies”.

The values above are taken from US12319913B2, “5-halouracil-modified microRNAs and their use in the treatment of cancer” (The Research Foundation for The State University of New York, priority 2018, dated 2025).
